Test results: the NIST ThermoML archive (doi:10.1021/acs.jced.8b01204)

Test: xn = mol fraction of the nth substance listed
Details: 101 kPa, Liquid; for speed of sound: Single path-length method; for mass density: Vibrating tube method

C[N+]1(CC2CO2)CCCC1=O.O=C([O-])c1ccccc1O (stereo not given) [1-methyl-1-(oxiran-2-ylmethyl)-2-oxopyrrolidinium salicylate] + CCC(=O)O
Details	mass density, 293.15 K [kg/m3]	mass density, 298.15 K [kg/m3]	mass density, 303.15 K [kg/m3]	mass density, 308.15 K [kg/m3]	mass density, 313.15 K [kg/m3]	speed of sound, 293.15 K [m/s]	speed of sound, 298.15 K [m/s]	speed of sound, 303.15 K [m/s]	speed of sound, 308.15 K [m/s]	speed of sound, 313.15 K [m/s]
x1 = 0.0303	1018.7	1013.6	1008.2	1003.2	998	1211.9	1193.4	1175	1156.8	1138.9
x1 = 0.0701	1046.2	1041.2	1036.2	1031.3	1026.3	1266.7	1248.7	1230.8	1213.2	1195.8
x1 = 0.1006	1063.4	1058.6	1053.7	1048.9	1044	1303.5	1286	1268.5	1251.1	1233.7
x1 = 0.2	1105.7	1101.9	1096.5	1091.8	1087.2	1400.3	1383.3	1366.1	1349.2	1332.5
x1 = 0.3007	1133.9	1129.4	1124.9	1120.4	1115.9	1465.8	1449	1432	1415.3	1398.7
x1 = 0.4009	1153.6	1149.2	1144.8	1140.3	1135.9	1505.7	1488.9	1472	1455.4	1439
x1 = 0.501	1168.6	1164.2	1159.8	1155.4	1151	1538.8	1521.9	1505	1488.4	1472
x1 = 0.6002	1180.6	1176.3	1172	1167.6	1163.3	1565.4	1547.8	1530.9	1514.3	1497.9
x1 = 0.7002	1190.5	1186.2	1181.9	1177.6	1173.3	1584.5	1566.8	1549.5	1532.7	1516.3
x1 = 0.8005	1198.3	1194.1	1189.8	1185.5	1181.2	1599.7	1581.7	1564.2	1547.3	1530.8
x1 = 0.901	1204.6	1200.4	1196.1	1191.8	1187.5	1615.4	1596.4	1578.6	1561.5	1544.9
x1 = 1	1209.8	1205.5	1201.3	1197.2	1193	1634.2	1614.5	1595.7	1577.6	1559.5
